# US12630765B2, “Fertilizer composition for reducing methane gas emission comprising ethephon and uses thereof” (priority 2020, dated 2026)
# Experiments:
# [1] = test system: methanogens in soils (mcrA, methyl coenzyme-M reductase gene); assay: Activity of methanogens in soils (mcrA gene copy number); conditions: for Activity of methanogens (mcrA gene copy no./g soil): 20 mg/kg in soils at fresh water conditions, cultivation for 50 days; for mcrA gene copy number reduced compared to the control: 20 mg/kg in soils, 50 days, vs control
# Text: (§1) It is known that coenzyme M (hereinbelow, “Co-M”), which is produced during the intercellular reactions of methanogens, is an inhibitor for specifically inhibiting the methanogenic activity of methanogens. Accordingly, ethephon was selected in the present invention as a structural analogue of Co-M. Specifically, CES (2-chloroethane sulfonate), BES (2-bromoethane sulfonate), and MES (2-mercaptoethane sulfonate) that are known as a structural analogue of Co-M, and ethephon (IUPAC name: 2-chloroethyl phosphonic acid) selected as a structural analogue of Co-M in the present invention were applied, each at the same concentration (20 mg/kg), to soils at fresh water conditions. Then, along with cultivation for 50 days, methane concentration in headspace and activity of the methanogens in soils were measured.
# (§2) First, methane concentration in headspace was measured and emission amount of methane gas was analyzed.
# [2] = test system: methanogens in soils; assay: Methane concentration in headspace of soils at fresh water conditions treated with Co-M structural analogues; conditions: for Methane concentration in headspace: 20 mg/kg in soils at fresh water conditions, cultivation for 50 days; for methane emission amount reduced compared to the control: 20 mg/kg in soils, 50 days, vs soils without sample treatment
# Text: as §1, §2
# [3] = test system: methanogens in soils of flooded rice paddies; assay: Methane emission from soils of flooded rice paddies during rice cultivation after fertilizer application; format: in vivo; conditions: for Methane emission: applied before rice transplanting
# Method: To acetone in which ethephon has been dissolved at various concentrations based on the blending ratio described in the following Table 4, cellulose acetate was added and dissolved therein. After mixing the resultant with gypsum and drying the mixture till to have evaporation of acetone, the mixture was crushed to have particle size of not more than 2 mm. Accordingly, fertilizer capable of reducing methane emission amount by delaying the ethephon degradation in soils was prepared. Since acetone is highly volatile so that it can completely evaporate during the process of mixing and drying ethephon, cellulose acetate, and gypsum, it is used in minimum amount depending on the total amount of mixture. Meanwhile, the ethephon treatment amount of 2 kg/ha, 6 kg/ha, and 10 kg/ha means that ethephon is applied at concentration of 1 mg/kg, 3 mg/kg, and 5 mg/kg (ppm), respectively, in soils.
# (§3) Fertilizer composition prepared by mixing ethephon, cellulose acetate, and gypsum at various mixing ratios was applied in an amount of 2 ton/ha to soils of flooded rice paddies before rice transplanting. Then, emission amount of methane during the subsequent process of cultivating rice, effect of inhibiting methane emission, and yield property of rice were analyzed.
# [4] = test system: rice; assay: Yield property of rice after fertilizer application; format: in vivo, Oryza sativa
# Method: as §3
# [5] = ethephon 2 kg/ha with gypsum 1940 kg/ha and CA 60 kg/ha
# [6] = ethephon 6 kg/ha with gypsum 1940 kg/ha and CA 60 kg/ha
# [7] = ethephon 10 kg/ha with gypsum 1940 kg/ha and CA 60 kg/ha
smiles,measurement,setting,value
"O=S(=O)([O-])CCBr.[Na+] [BES, 2-bromoethane sulfonate]",Activity of methanogens (mcrA gene copy no./g soil),[1],1.65 × 10^6 mcrA gene copy no./g soil
same,mcrA gene copy number reduced compared to the control,[1],~45%
same,Methane concentration in headspace,[2],4.4 mg/L
same,methane emission amount reduced compared to the control,[2],~56%
"O=S(=O)([O-])CCCl.[Na+] [CES, 2-chloroethane sulfonate]",Activity of methanogens (mcrA gene copy no./g soil),[1],1.86 × 10^6 mcrA gene copy no./g soil
same,mcrA gene copy number reduced compared to the control,[1],about 39%
same,Methane concentration in headspace,[2],5.1 mg/L
same,methane emission amount reduced compared to the control,[2],about 48%
"O=P(O)(O)CCCl [Ethephon, 2-chloroethyl phosphonic acid]",Effect of inhibiting methanogenesis,[3]; [5],50.5%
same,Methane emission,[3]; [5],36.9 kg CH4 ha^−1
same,Effect of inhibiting methanogenesis,[3]; [6],78.6%
same,Methane emission,[3]; [6],15.9 kg CH4 ha^−1
same,Effect of inhibiting methanogenesis,[3]; [7],98.1%
same,Methane emission,[3]; [7],1.4 kg CH4 ha^−1
same,Effect of inhibiting methanogenesis,"[3]; ethephon 10 kg/ha with gypsum 1940 kg/ha and CA 60 kg/ha, listed as ethephon",about 98.1%
same,methane gas emission amount from flooded rice paddies,[3]; fertilizer containing ethephon vs fertilizer not containing any ethephon,significantly lower
same,Grain yield,[4]; [5],6331 kg/ha
same,Straw yield,[4]; [5],6964 kg/ha
same,Yield index,[4]; [5],100
same,change in rice yield in relation to the application amount of ethephon,[4]; ethephon 2 to 10 kg/ha in fertilizer,no significant change in rice yield
same,Grain yield,[4]; [6],6298 kg/ha
same,Straw yield,[4]; [6],6928 kg/ha
same,Yield index,[4]; [6],99.6
same,Grain yield,[4]; [7],6315 kg/ha
same,Straw yield,[4]; [7],6946 kg/ha
same,Yield index,[4]; [7],99.9
same,Activity of methanogens (mcrA gene copy no./g soil),[1],1.35 × 10^6 mcrA gene copy no./g soil
same,mcrA gene copy number reduced compared to the control,[1],~55%
same,Methane concentration in headspace,[2],4.4 mg/L
same,methane emission amount reduced compared to the control,[2],~56%
